# Assay results: ChEMBL document CHEMBL4177666, “Compound design guidelines for evading the efflux and permeation barriers of Escherichia coli with the oxazolidinone class of antibacterials: Test case for a general approach to improving whole cell Gram-negative activity” (Bioorg Med Chem Lett, 2017)
# Tests used:
# Format in all cases: functional
# Staphylococcus aureus = test: Antibacterial activity against methicillin-susceptible Staphylococcus aureus ATCC 29213 by CLSI broth microdilution method
# Escherichia coli [1] = test: Antibacterial activity against gram-negative wild type Escherichia coli MG1655 by CLSI broth microdilution method
# Escherichia coli [2] = test: Antibacterial activity against gram-negative Escherichia coli MG1655 membrane permeabilized mutant in presence of polymyxinnonapeptide by CLSI broth microdilution method
# Escherichia coli [3] = test: Permeability index, ratio of MIC for wild type Escherichia coli MG1655 to MIC for Escherichia coli MG1655 membrane permeabilized mutant in presence of polymyxinnonapeptide
# Escherichia coli [4] = test: Efflux index, ratio of MIC for wild type Escherichia coli MG1655 to MIC for Escherichia coli MG1655 expressing AcrAB-TolC efflux pump deletion mutant
# Escherichia coli [5] = test: Antibacterial activity against gram-negative Escherichia coli MG1655 expressing AcrAB-TolC efflux pump deletion mutant by CLSI broth microdilution method
SMILES,MIC (Staphylococcus aureus) [µg/mL],MIC (Escherichia coli [1]) [µg/mL],MIC (Escherichia coli [2]) [µg/mL],Ratio (Escherichia coli [3]),Ratio (Escherichia coli [4]),MIC (Escherichia coli [5]) [µg/mL]
N#Cc1ccc(-c2ccc(N3C[C@H](CN)OC3=O)cc2F)cc1O,64,> 256,,,,
CC(=O)NC[C@H]1CN(c2ccc(-c3ccc(CN)cc3)c(F)c2)C(=O)O1,2,64,32,2,8,8
NCc1ccc(-c2ccc(N3C[C@H](Cn4nncc4CO)OC3=O)cc2F)cc1,> 64,> 256,,,,
O=C1O[C@@H](CO)CN1c1ccc(O)c(F)c1,> 64,> 256,,,,
NC[C@H]1CN(c2ccc(-c3ccc(F)c(O)c3)c(F)c2)C(=O)O1,64,256,256,1,1,256
O=C1O[C@@H](CO)CN1c1ccc(-c2ccc(N3C[C@@H](CO)OC3=O)nc2)c(F)c1,32,> 128,,,,
CCOc1cnnn1C[C@H]1CN(c2ccc(-c3ccc(CN)cc3)c(F)c2)C(=O)O1,32,> 256,256,>1,>2,128
NCc1ccc(-c2ccc(N3C[C@H](Cn4cc(O)nn4)OC3=O)cc2F)cc1,8,> 64,,,>2,32
O=C1CCc2cc(-c3ccc(N4C[C@H](CO)OC4=O)cc3F)cc(O)c21,1,> 256,64,>32,8,8
N/C(=N\O)c1ccc(-c2ccc(N3C[C@H](CNC(=O)C(F)(F)F)OC3=O)cc2F)cc1O,> 64,> 256,,,,
NCc1ccc(-c2ccc(N3C[C@H](CN4C(=O)CNC4=O)OC3=O)cc2F)cc1,> 64,> 256,,,,
O=C1O[C@@H](CO)CN1c1ccc(-c2cc(O)c(F)cc2F)cc1,4,> 256,64,>4,>8,32
CC(=O)NC[C@H]1CN(c2ccc(-c3ccnc(N)c3)c(F)c2)C(=O)O1,2,128,32,4,16,8
O=C1O[C@@H](CNC(=O)C(F)(F)F)CN1c1ccc(-c2ccc(F)c(O)c2)c(F)c1,32,> 256,256,>2,>2,256
N#Cc1cc(O)cc(-c2ccc(N3C[C@H](Cn4ccnn4)OC3=O)cc2F)c1,8,> 256,128,>2,>4,64
N/C(=N\O)c1ccc(-c2ccc(N3C[C@H](CNC(=O)C(F)(F)F)OC3=O)cc2F)cc1,< 0.5,> 256,16,>16,>256,< 2
CC(=O)NC[C@H]1CN(c2ccc(-c3ccc(CN)c(O)c3)c(F)c2)C(=O)O1,4,128,64,2,16,8
NCc1ccc(-c2ccc(N3C[C@H](CNC(=O)C(F)(F)F)OC3=O)cc2F)cc1,2,64,11,6,32,2
N/C(=N\O)c1ccc(-c2ccc(N3C[C@H](CO)OC3=O)cc2)cc1,2,> 256,32,>8,>32,8
CCOc1cn(C[C@H]2CN(c3ccc(-c4ccc(CN)cc4)c(F)c3)C(=O)O2)nn1,16,> 64,,,>4,32
NC[C@H]1CN(c2ccc(N3CCOCC3)c(F)c2)C(=O)O1,> 64,> 256,,,,
COc1cc(N2C[C@H](CO)OC2=O)ccc1-c1ccc(CN)cc1,> 64,> 256,,,,
O=C(O)c1ccc(N2C[C@H](CO)OC2=O)cc1F,> 64,> 256,,,,
N#Cc1ccc(-c2ccc(N3C[C@H](CO)OC3=O)nc2)cc1O,> 64,> 256,,,,

SMILES,MIC (Staphylococcus aureus) [µg/mL],MIC (Escherichia coli [1]) [µg/mL],MIC (Escherichia coli [2]) [µg/mL],Ratio (Escherichia coli [3]),Ratio (Escherichia coli [4]),MIC (Escherichia coli [5]) [µg/mL]
NCc1ccc(-c2ccc(N3C[C@H](CNC(=O)C(F)F)OC3=O)cc2F)cc1,2,128,32,4,32,4
O=C1O[C@@H](CO)CN1c1ccc(-c2ccccc2F)cc1,4,> 64,,,>8,8
N/C(=N\O)c1ccc(-c2ccc(N3C[C@H](CO)OC3=O)cc2F)cn1,1,> 256,16,>16,>16,16
O=C1O[C@@H](CO)CN1c1ccc(O)cc1F,> 64,> 256,,,,
O=C1O[C@@H](CO)CN1c1ccc(-c2ccc([N+](=O)[O-])c(O)c2)c(F)c1,,,,1,1,
CC(=O)NC[C@H]1CN(c2ccc(-c3cnc(C#N)c(O)c3)c(F)c2)C(=O)O1,32,> 256,,,>2,128
O=C1O[C@@H](CO)CN1c1ccc(-c2ccc(F)c(O)c2)[n+]([O-])c1,64,> 256,,,,
NCc1ccc(-c2ccc(N3C[C@H](Cn4nncc4C(=O)O)OC3=O)cc2F)cc1,16,> 128,,,,
NCc1cc(F)c(-c2ccc(N3C[C@H](CO)OC3=O)cc2F)cc1O,,,,2,1,
COc1ccc(N2C[C@H](CO)OC2=O)cc1O,> 64,> 256,,,,
NCc1ccc(-c2ccc(N3C[C@H](Cn4cc(CO)nn4)OC3=O)cc2F)cc1,16,256,128,2,,64
NCc1ccc(-c2ccc(N3C[C@H](Cn4cc(C(=O)O)nn4)OC3=O)cc2F)cc1,> 64,> 256,,,,
NCCC#Cc1ccc(N2C[C@H](CO)OC2=O)cc1F,> 64,> 256,,,,
COc1ccccc1-c1ccc(N2C[C@H](CO)OC2=O)cc1,64,> 64,,,,
NCc1ccc(-c2ccc(N3C[C@H](C(N)=O)OC3=O)cc2F)cc1,> 64,> 256,,,,
NC(/C=C/c1ccc(N2C[C@H](CO)OC2=O)cc1F)=N\O,> 64,> 128,,,,
NCc1ccc(-c2ccc(N3C[C@H](Cn4nncc4O)OC3=O)cc2F)cc1,> 64,> 64,,,,
NCc1ccc(-c2ccc(N3C[C@H](C(=O)O)OC3=O)cc2F)cc1,> 64,> 256,,,,
NCc1ccc(-c2ccc(N3C[C@H](CN4CCOC4=O)OC3=O)cc2F)cc1,16,> 256,,,>=2,256
NCc1ccc(-c2ccc(N3C[C@H](CO)OC3=O)cc2O)cc1,> 64,> 256,,,,
NCc1ccc(-c2ccc(N3C[C@H](CO)OC3=O)cc2F)cc1O,,,,2.6,10.2,
N/C(=N\O)c1ccc(-c2ccc(N3C[C@H](CO)OC3=O)cc2F)cc1O,,,,2,1,
NCc1ccc(-c2ccc(N3C[C@H](Cn4nc[nH]c4=O)OC3=O)cc2F)cc1,32,> 64,,,,
